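Compound exposure: 48 hours, 5 concentrations, 96-well plates. GI50 = concentration required for 50% inhibition of growth.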 The source made the active and inactive calls. No stated cut-off is given here; in the data, active = GI50 up to about 1.1 µM and inactive = higher.
Key:
Experiment in all cases: NCI-60 cell line screen, 48 h
[1] = tested on: A498
[2] = tested on: HCC 2998
[3] = tested on: EKVX
[4] = tested on: OVCAR-3
[5] = tested on: KM12
[6] = tested on: SK-MEL-5
[7] = tested on: Malme-3M
[8] = tested on: MOLT-4
[9] = tested on: HCT-15
[10] = tested on: ACHN
[11] = tested on: IGROV-1
[12] = tested on: DMS-114
[13] = tested on: NCI-H460
[14] = tested on: SK-MEL-2
[15] = tested on: UO-31
[16] = tested on: HT-29
[17] = tested on: OVCAR-4
[18] = tested on: HOP-92
[19] = tested on: BT-549
[20] = tested on: Hs-578T

Compound | GI50 [1] | GI50 [2] | GI50 [3] | GI50 [4] | GI50 [5] | GI50 [6] | GI50 [7] | GI50 [8] | GI50 [9] | GI50 [10] | GI50 [11] | GI50 [12] | GI50 [13] | GI50 [14] | GI50 [15] | GI50 [16] | GI50 [17] | GI50 [18] | GI50 [19] | GI50 [20]
N=C(N)Cn1cnc2ccccc21 | > 100 µM (inactive) | > 100 µM (inactive) | > 100 µM (inactive) | > 100 µM (inactive) | > 100 µM (inactive) | > 100 µM (inactive) | > 100 µM (inactive) | > 100 µM (inactive) | > 100 µM | > 100 µM (inactive) | > 100 µM (inactive) | > 100 µM (inactive) | > 100 µM (inactive) | > 100 µM (inactive) | > 100 µM (inactive) | – | – | – | – | –
COC(=O)/C(C#N)=C1\CCC(O)N1 (configuration not stated) | – | > 100 µM (inactive) | > 100 µM (inactive) | > 100 µM (inactive) | > 100 µM (inactive) | – | > 100 µM (inactive) | > 100 µM (inactive) | – | > 100 µM (inactive) | > 100 µM (inactive) | > 100 µM (inactive) | > 100 µM (inactive) | > 100 µM (inactive) | > 100 µM (inactive) | > 100 µM (inactive) | > 100 µM (inactive) | – | – | –
Cc1nnc2n1N=C(CC(=O)c1ccc(O)cc1O)CN2N | > 100 µM (inactive) | > 100 µM (inactive) | > 100 µM (inactive) | – | > 100 µM (inactive) | > 100 µM (inactive) | > 100 µM (inactive) | – | 15.5 µM | > 100 µM (inactive) | > 100 µM (inactive) | 19.6 µM (inactive) | 38.7 µM (inactive) | > 100 µM (inactive) | > 100 µM (inactive) | > 100 µM (inactive) | > 100 µM (inactive) | – | – | –
CCOC(=O)C1(NC(=O)OC(C)(C)C)CCc2[nH]oc(=O)c2C1 (configuration not stated) | > 100 µM (inactive) | > 100 µM (inactive) | > 100 µM (inactive) | > 100 µM (inactive) | 9.95 µM (inactive) | > 100 µM (inactive) | > 100 µM (inactive) | > 100 µM (inactive) | > 100 µM | > 100 µM (inactive) | > 100 µM (inactive) | – | > 100 µM (inactive) | > 100 µM (inactive) | > 100 µM (inactive) | > 100 µM (inactive) | > 100 µM (inactive) | > 100 µM (inactive) | > 100 µM (inactive) | > 100 µM (inactive)
CC(C)C(=O)/C=C/c1ccc(Cl)cc1Cl | 17.9 µM (inactive) | 16.4 µM (inactive) | 16.8 µM (inactive) | 4.63 µM (inactive) | 4.06 µM (inactive) | 14.5 µM (inactive) | 14.8 µM (inactive) | 8.15 µM (inactive) | 12.2 µM | 16.2 µM (inactive) | 14.8 µM (inactive) | – | 11.3 µM (inactive) | 14.2 µM (inactive) | 11.4 µM (inactive) | 3.99 µM (inactive) | 6.75 µM (inactive) | 16.8 µM (inactive) | 4.41 µM (inactive) | 3.51 µM (inactive)
O=c1[nH]c2nccn2c(Cl)c1Br | 76 µM (inactive) | 21.1 µM (inactive) | 19.7 µM (inactive) | 19.8 µM (inactive) | 95.1 µM (inactive) | 25.2 µM (inactive) | 20 µM (inactive) | 20.2 µM (inactive) | 16.6 µM | 29.9 µM (inactive) | 20.3 µM (inactive) | – | 24.7 µM (inactive) | 2.52 µM (inactive) | 60 µM (inactive) | 23.3 µM (inactive) | 18 µM (inactive) | 24.7 µM (inactive) | 18.7 µM (inactive) | 26.9 µM (inactive)
Cc1cc(C)c2c(=N)c3ccccc3n(CCCCCCCCn3c4ccccc4c(=N)c4c(C)cc(C)nc43)c2n1 | 1.59 µM (inactive) | 0.631 µM (active) | 1.4 µM (inactive) | 1.76 µM (inactive) | 0.358 µM (active) | 1.82 µM (inactive) | 1.74 µM (inactive) | 0.258 µM (active) | 0.2 µM | 1.56 µM (inactive) | 1.33 µM (inactive) | – | 0.184 µM (active) | 1.75 µM (inactive) | 1.46 µM (inactive) | 0.224 µM (active) | 0.627 µM (active) | 1.26 µM (inactive) | 1.85 µM (inactive) | 1.81 µM (inactive)
CN(C)C(=S)S [SODIUM DIMETHYLCARBAMODITHIOATE] | > 100 µM (inactive) | 20.1 µM (inactive) | > 94.6 µM (inactive) | 0.305 µM (active) | > 25.2 µM (inactive) | 4.14 µM (inactive) | > 43.8 µM (inactive) | 35.4 µM (inactive) | > 76 µM | > 71 µM (inactive) | 2.23 µM (inactive) | – | 4.68 µM (inactive) | 18.1 µM (inactive) | 56.4 µM (inactive) | 11.5 µM (inactive) | 36.9 µM (inactive) | > 100 µM (inactive) | > 100 µM (inactive) | > 100 µM (inactive)
CCOC(=O)C1=C(N)N(c2ccccc2)/C(=C2\SC(=S)N(c3ccc(C)cc3)C2=O)S1 | 31.4 µM (inactive) | 50.1 µM (inactive) | > 100 µM (inactive) | 27.9 µM (inactive) | > 100 µM (inactive) | 54.8 µM (inactive) | 51.1 µM (inactive) | 60.8 µM (inactive) | > 100 µM | 76 µM (inactive) | > 100 µM (inactive) | – | 75.2 µM (inactive) | 73.3 µM (inactive) | 68.2 µM (inactive) | 47.3 µM (inactive) | 18 µM (inactive) | 30.5 µM (inactive) | 90.2 µM (inactive) | 25 µM (inactive)
O=C1c2ccccc2C(=O)c2c(NC(=O)c3ccc4c5c(ncnc35)-c3ccccc3C4=O)cccc21 | 40.6 µM (inactive) | > 100 µM (inactive) | > 100 µM (inactive) | 37.1 µM (inactive) | > 100 µM (inactive) | > 100 µM (inactive) | > 100 µM (inactive) | > 100 µM (inactive) | > 100 µM | > 100 µM (inactive) | > 100 µM (inactive) | – | > 100 µM (inactive) | 89.3 µM (inactive) | > 100 µM (inactive) | > 100 µM (inactive) | > 100 µM (inactive) | 53.3 µM (inactive) | 48 µM (inactive) | 57.1 µM (inactive)
COc1ccc2c(c1)[nH]c1c3ccc(OC)cc3oc(=O)c21 | > 100 µM (inactive) | > 100 µM (inactive) | > 100 µM (inactive) | > 100 µM (inactive) | 19.8 µM (inactive) | > 100 µM (inactive) | > 100 µM (inactive) | > 100 µM (inactive) | 5.27 µM | > 100 µM (inactive) | > 100 µM (inactive) | – | > 100 µM (inactive) | > 100 µM (inactive) | > 100 µM (inactive) | > 100 µM (inactive) | > 100 µM (inactive) | > 100 µM (inactive) | 57.3 µM (inactive) | 55.2 µM (inactive)
COc1ccc(/C=C2\C(=O)N(C3OC(COC(C)=O)C(OC(C)=O)C(OC(C)=O)C3OC(C)=O)c3ccccc3N=C2N)cc1 (configuration not stated) | 28.2 µM (inactive) | 21.8 µM (inactive) | 26.8 µM (inactive) | 23.2 µM (inactive) | 16.9 µM (inactive) | 11.3 µM (inactive) | 27.4 µM (inactive) | 18.3 µM (inactive) | 12.9 µM | 38.5 µM (inactive) | 27.3 µM (inactive) | – | 25.1 µM (inactive) | 23.1 µM (inactive) | 32.4 µM (inactive) | 18.8 µM (inactive) | 33.5 µM (inactive) | 71.4 µM (inactive) | 23.9 µM (inactive) | 34.6 µM (inactive)
CCSC1=N/C(=C\c2ccc(N(C)C)cc2)C(Cl)=N1 | > 100 µM (inactive) | > 100 µM (inactive) | > 100 µM (inactive) | > 100 µM (inactive) | > 100 µM (inactive) | > 100 µM (inactive) | > 100 µM (inactive) | > 100 µM (inactive) | > 100 µM | > 100 µM (inactive) | > 100 µM (inactive) | – | > 100 µM (inactive) | > 100 µM (inactive) | > 100 µM (inactive) | > 100 µM (inactive) | > 100 µM (inactive) | > 100 µM (inactive) | > 100 µM (inactive) | > 100 µM (inactive)
CCCCCCOc1ccc(C(=O)NO)cc1 | 13 µM (inactive) | 9.25 µM (inactive) | 15 µM (inactive) | 6.03 µM (inactive) | 11.9 µM (inactive) | 15.7 µM (inactive) | 11.3 µM (inactive) | 1.07 µM (active) | 1.61 µM | 5.07 µM (inactive) | 3.61 µM (inactive) | – | 4.68 µM (inactive) | 12.4 µM (inactive) | 6.08 µM (inactive) | 7.57 µM (inactive) | 5.74 µM (inactive) | 13.9 µM (inactive) | 15.8 µM (inactive) | 19.6 µM (inactive)
CC(SC(=S)Nc1cccc(F)c1)C(=O)O (configuration not stated) | 26.7 µM (inactive) | 30.9 µM (inactive) | 51.2 µM (inactive) | 27.4 µM (inactive) | > 10 µM (inactive) | – | – | 17.5 µM (inactive) | 26.1 µM | 26.5 µM (inactive) | 3.85 µM (inactive) | 15.1 µM (inactive) | 26.2 µM (inactive) | 24.1 µM (inactive) | 24.9 µM (inactive) | 30.5 µM (inactive) | > 100 µM (inactive) | – | – | –
CCCC1=C(OC)C(=O)c2c(C)cc(Cl)nc2C1=O | 20.2 µM (inactive) | 7.62 µM (inactive) | 7.66 µM (inactive) | 2.81 µM (inactive) | 7.29 µM (inactive) | 4.06 µM (inactive) | 3.02 µM (inactive) | 1.55 µM (inactive) | 3.05 µM | 6.92 µM (inactive) | 11.7 µM (inactive) | – | 13.7 µM (inactive) | 10.5 µM (inactive) | 13.5 µM (inactive) | 4.3 µM (inactive) | 6.37 µM (inactive) | 5.79 µM (inactive) | 13.6 µM (inactive) | 3.75 µM (inactive)
